The subject of series [1] is human gingival fibroblast cells (HGF-1). Put plainly: Cell cytotoxic test, human gingival fibroblast cells. Particulars: HGF-1 cells; IC50 as silver concentration.
Series [2] relates to stem cells from human exfoliated deciduous teeth (SHED1). The series is described as follows: Cell cytotoxic test, stem cells from human exfoliated deciduous teeth. The conditions noted are these: IC50 as silver concentration.

Structures are written as SMILES.

`C1N2CN3CN1CP(C2)C3.C1N2CN3CN1CP(C2)C3.[Ag+].[F-]` [SCF, [Ag(1,3,5-triaza-7-phosphaadamantane)2]F]: in series [1], the “IC50 against HGF-1 (cell cytotoxicity)” value was determined as 43.98±12.80 ppm. In addition, the “IC50 against SHED1 (cell cytotoxicity)” value in series [2] was found to be 34.54±5.09 ppm.

The values are drawn from patent US20250129109A1.
